Reference: publication PMC5773580, “A synthetic combinatorial approach to disabling deviant Hedgehog signaling” (Scientific Reports, 2018)
Where “and” joins values, the source holds several entries; their conditions need not be identical. Identical values can stand only once.

Tests used:
Assay type in all cases: biochemical
Conditions in all cases: for HDAC Activity (Fluorescent counts): Repeat1/Repeat 2
[1] = target: T1, HDAC7 (Homo sapiens, UniProt Q8WUI4); test: In vitro HDAC profiling (deacetylation assay), HDAC7
T1 construct: purchased BPS Bioscience #50051-11
T1 sequence (Q8WUI4 1-952): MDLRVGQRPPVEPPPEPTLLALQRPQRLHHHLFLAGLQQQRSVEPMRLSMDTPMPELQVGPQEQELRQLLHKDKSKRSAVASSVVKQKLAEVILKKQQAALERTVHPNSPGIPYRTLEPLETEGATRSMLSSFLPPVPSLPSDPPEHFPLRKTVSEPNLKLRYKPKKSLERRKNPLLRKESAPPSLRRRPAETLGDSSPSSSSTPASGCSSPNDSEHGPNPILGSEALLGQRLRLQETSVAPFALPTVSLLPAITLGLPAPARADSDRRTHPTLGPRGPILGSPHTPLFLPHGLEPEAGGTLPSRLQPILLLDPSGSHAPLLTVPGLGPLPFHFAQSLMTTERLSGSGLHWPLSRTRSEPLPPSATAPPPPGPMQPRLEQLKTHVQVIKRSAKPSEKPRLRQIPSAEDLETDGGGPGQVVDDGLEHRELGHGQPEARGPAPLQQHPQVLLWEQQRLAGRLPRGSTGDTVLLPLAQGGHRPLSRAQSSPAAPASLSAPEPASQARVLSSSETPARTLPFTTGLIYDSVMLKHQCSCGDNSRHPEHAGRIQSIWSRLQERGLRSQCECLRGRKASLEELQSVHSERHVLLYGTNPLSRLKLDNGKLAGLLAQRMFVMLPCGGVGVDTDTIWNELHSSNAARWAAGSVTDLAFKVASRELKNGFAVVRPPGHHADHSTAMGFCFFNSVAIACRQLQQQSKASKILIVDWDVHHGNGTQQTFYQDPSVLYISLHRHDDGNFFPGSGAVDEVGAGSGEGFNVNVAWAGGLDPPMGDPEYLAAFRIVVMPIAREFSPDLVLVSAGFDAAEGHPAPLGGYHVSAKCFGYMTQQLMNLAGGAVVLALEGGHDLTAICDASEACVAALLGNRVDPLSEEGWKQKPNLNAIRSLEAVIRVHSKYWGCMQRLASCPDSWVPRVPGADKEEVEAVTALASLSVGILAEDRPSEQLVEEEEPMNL
Description: (§1) HDAC profiling was performed at BPS Bioscience (San Diego, CA). All of the compounds are dissolved in DMSO. A series of dilutions of the compounds were prepared with 10% DMSO in HDAC assay buffer (#50031) and 5 µl of the dilution was added to a 50 µl reaction so that the final concentration of DMSO is 1% in all of reactions. All of the enzymatic reactions were conducted in duplicate at 37 °C for 30 mins, except that the enzyme reactions for HDAC11 were at room temperature for 3 hrs. All of the reactions were performed in a 50 µl mixture containing HDAC assay buffer, 5 µg BSA, an HDAC substrate [HDAC Substrate 3 (BPS number 50037) or HDAC Class 2a Substrate 1 (BPS number 50040)], an HDAC enzyme (#50051-11) and a test compound. After enzymatic reactions, 50 μl of HDAC Developer (#50030) was added to each well and the plate was incubated at room temperature for an additional 20 mins. Fluorescence intensity was measured at an excitation of 360 nm and an emission of 460 nm using a Tecan Infinite M1000 microplate reader. HDAC activity assays were performed in duplicates at each concentration. The fluorescent intensity data were analyzed using the computer software, Graphpad Prism. In the absence of the compound, the fluorescent intensity (Ft) in each data set was defined as 100% activity. In the absence of HDAC, the fluorescent intensity (Fb) in each data set was defined as 0% activity. The percent activity in the presence of each compound was calculated according to the following equation: %activity = (F − Fb)/(Ft − Fb), where F = the fluorescent intensity in the presence of the compound. The values of % activity versus a series of compound concentrations were then plotted using non-linear regression analysis of Sigmoidal dose-response curve generated with the equation Y = B + (T − B)/1 + 10((LogIC50 − X) × Hill Slope), where Y = percent activity, B = minimum percent activity, T = maximum percent activity, X = logarithm of compound and Hill Slope = slope factor or Hill coefficient. The IC50 value was determined by the concentration causing a half-maximal percent activity.

[2] = target: T2, HDAC4 (Homo sapiens, UniProt P56524); test: In vitro HDAC profiling (deacetylation assay), HDAC4
T2 construct: purchased BPS Bioscience #50051-11
Description: as §1

[3] = target: T3, HDAC8 (Homo sapiens, UniProt Q9BY41); test: In vitro HDAC profiling (deacetylation assay), HDAC8
T3 construct: purchased BPS Bioscience #50051-11
T3 sequence (Q9BY41 1-377): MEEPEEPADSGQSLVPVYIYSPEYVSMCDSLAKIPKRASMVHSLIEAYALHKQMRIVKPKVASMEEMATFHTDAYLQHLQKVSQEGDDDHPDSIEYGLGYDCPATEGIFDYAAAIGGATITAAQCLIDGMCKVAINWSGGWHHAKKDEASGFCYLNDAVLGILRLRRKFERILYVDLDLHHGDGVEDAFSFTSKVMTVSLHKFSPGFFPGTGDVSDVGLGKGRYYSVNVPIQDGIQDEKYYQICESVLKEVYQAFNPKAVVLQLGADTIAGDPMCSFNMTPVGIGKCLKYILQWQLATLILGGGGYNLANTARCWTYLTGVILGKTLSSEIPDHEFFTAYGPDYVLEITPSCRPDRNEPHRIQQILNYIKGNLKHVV
Description: as §1

[4] = in vitro deacetylation assay, duplicates

T2 sequence (P56524 whole entry): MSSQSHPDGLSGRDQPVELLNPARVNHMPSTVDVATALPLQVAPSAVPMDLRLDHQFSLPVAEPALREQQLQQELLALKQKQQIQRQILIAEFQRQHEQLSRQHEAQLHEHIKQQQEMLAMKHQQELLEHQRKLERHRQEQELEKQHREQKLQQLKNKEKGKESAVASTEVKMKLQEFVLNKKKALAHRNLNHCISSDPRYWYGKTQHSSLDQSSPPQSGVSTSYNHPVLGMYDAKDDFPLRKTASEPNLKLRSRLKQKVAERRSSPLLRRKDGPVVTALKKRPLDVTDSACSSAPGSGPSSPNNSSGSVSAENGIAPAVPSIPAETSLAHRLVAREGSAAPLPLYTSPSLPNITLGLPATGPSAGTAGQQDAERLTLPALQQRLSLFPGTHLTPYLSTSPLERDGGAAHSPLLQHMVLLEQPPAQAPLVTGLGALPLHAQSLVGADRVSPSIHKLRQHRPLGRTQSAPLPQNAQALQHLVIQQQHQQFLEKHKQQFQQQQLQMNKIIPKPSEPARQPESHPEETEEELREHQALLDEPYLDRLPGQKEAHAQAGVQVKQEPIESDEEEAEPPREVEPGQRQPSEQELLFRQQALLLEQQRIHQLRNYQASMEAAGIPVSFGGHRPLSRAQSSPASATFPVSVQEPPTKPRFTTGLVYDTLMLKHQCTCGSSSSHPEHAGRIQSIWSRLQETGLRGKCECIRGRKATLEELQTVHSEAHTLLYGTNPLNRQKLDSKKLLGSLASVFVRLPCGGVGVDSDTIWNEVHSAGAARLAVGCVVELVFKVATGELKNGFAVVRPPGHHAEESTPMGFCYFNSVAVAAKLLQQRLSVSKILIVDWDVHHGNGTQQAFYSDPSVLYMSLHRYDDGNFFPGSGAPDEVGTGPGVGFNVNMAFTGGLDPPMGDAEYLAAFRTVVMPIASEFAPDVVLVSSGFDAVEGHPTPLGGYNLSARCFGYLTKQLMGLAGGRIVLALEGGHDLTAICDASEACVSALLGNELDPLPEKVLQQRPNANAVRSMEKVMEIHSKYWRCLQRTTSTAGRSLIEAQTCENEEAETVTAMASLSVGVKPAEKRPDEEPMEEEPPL

IC50 [1, 4]: > 10 µM
IC50 [2, 4]: > 10 µM
IC50 [3, 4]: > 10 µM
Compound: O=C(CCCCCCC(=O)Nc1ccc(Cl)c(C(=O)Nc2ccc(NC(=O)c3cc(Cl)ccc3Cl)cc2)c1)NO [IHR-SAHA]
HDAC Activity (Fluorescent counts) ([1]; HDAC7, WW01 0 Log nM): 32252 Fluorescent counts and 31868 Fluorescent counts
HDAC Activity (Fluorescent counts) ([1]; HDAC7, WW01 0.5 Log nM): 34296 Fluorescent counts and 32176 Fluorescent counts
HDAC Activity (Fluorescent counts) ([1]; HDAC7, WW01 1 Log nM): 33398 Fluorescent counts and 31906 Fluorescent counts
HDAC Activity (Fluorescent counts) ([1]; HDAC7, WW01 1.5 Log nM): 32702 Fluorescent counts and 31126 Fluorescent counts
HDAC Activity (Fluorescent counts) ([1]; HDAC7, WW01 2 Log nM): 31277 Fluorescent counts and 30567 Fluorescent counts
HDAC Activity (Fluorescent counts) ([1]; HDAC7, WW01 2.5 Log nM): 29706 Fluorescent counts and 30369 Fluorescent counts
HDAC Activity (Fluorescent counts) ([1]; HDAC7, WW01 3 Log nM): 26605 Fluorescent counts and 26320 Fluorescent counts
HDAC Activity (Fluorescent counts) ([1]; HDAC7, WW01 3.5 Log nM): 26104 Fluorescent counts and 24955 Fluorescent counts
HDAC Activity (Fluorescent counts) ([1]; HDAC7, WW01 4 Log nM): 25321 Fluorescent counts and 25226 Fluorescent counts
HDAC Activity (Fluorescent counts) ([1]; HDAC7, WW01 -0.5 Log nM): 33125 Fluorescent counts and 32259 Fluorescent counts
HDAC Activity (Fluorescent counts) ([2]; HDAC4, WW01 0 Log nM): 34281 Fluorescent counts and 35156 Fluorescent counts
HDAC Activity (Fluorescent counts) ([2]; HDAC4, WW01 0.5 Log nM): 35257 Fluorescent counts and 33365 Fluorescent counts
HDAC Activity (Fluorescent counts) ([2]; HDAC4, WW01 1 Log nM): 34132 Fluorescent counts and 32561 Fluorescent counts
HDAC Activity (Fluorescent counts) ([2]; HDAC4, WW01 1.5 Log nM): 32307 Fluorescent counts and 33171 Fluorescent counts
HDAC Activity (Fluorescent counts) ([2]; HDAC4, WW01 2 Log nM): 34170 Fluorescent counts and 33741 Fluorescent counts
HDAC Activity (Fluorescent counts) ([2]; HDAC4, WW01 2.5 Log nM): 30594 Fluorescent counts and 30410 Fluorescent counts
HDAC Activity (Fluorescent counts) ([2]; HDAC4, WW01 3 Log nM): 29955 Fluorescent counts and 29639 Fluorescent counts
HDAC Activity (Fluorescent counts) ([2]; HDAC4, WW01 3.5 Log nM): 26541 Fluorescent counts and 27641 Fluorescent counts
HDAC Activity (Fluorescent counts) ([2]; HDAC4, WW01 4 Log nM): 24902 Fluorescent counts and 23203 Fluorescent counts
HDAC Activity (Fluorescent counts) ([2]; HDAC4, WW01 -0.5 Log nM): 34466 Fluorescent counts and 34397 Fluorescent counts
HDAC Activity (Fluorescent counts) ([3]; HDAC8, WW01 0 Log nM): 21093 Fluorescent counts and 21821 Fluorescent counts
HDAC Activity (Fluorescent counts) ([3]; HDAC8, WW01 0.5 Log nM): 22364 Fluorescent counts and 22102 Fluorescent counts
HDAC Activity (Fluorescent counts) ([3]; HDAC8, WW01 1 Log nM): 22562 Fluorescent counts and 22110 Fluorescent counts
HDAC Activity (Fluorescent counts) ([3]; HDAC8, WW01 1.5 Log nM): 21528 Fluorescent counts and 20488 Fluorescent counts
HDAC Activity (Fluorescent counts) ([3]; HDAC8, WW01 2 Log nM): 18696 Fluorescent counts and 20642 Fluorescent counts
HDAC Activity (Fluorescent counts) ([3]; HDAC8, WW01 2.5 Log nM): 20242 Fluorescent counts and 19075 Fluorescent counts
HDAC Activity (Fluorescent counts) ([3]; HDAC8, WW01 3 Log nM): 18387 Fluorescent counts and 19845 Fluorescent counts
HDAC Activity (Fluorescent counts) ([3]; HDAC8, WW01 3.5 Log nM): 17109 Fluorescent counts and 19683 Fluorescent counts
HDAC Activity (Fluorescent counts) ([3]; HDAC8, WW01 4 Log nM): 16686 Fluorescent counts and 18294 Fluorescent counts
HDAC Activity (Fluorescent counts) ([3]; HDAC8, WW01 -0.5 Log nM): 19254 Fluorescent counts and 22456 Fluorescent counts
